From patent publication US12202826B2, “N-pyridinyl acetamide derivatives as inhibitors of the Wnt signaling pathway” (Redx Pharma PLC, priority 2014, dated 2025)

Tests used:
[1] = Dual-Cell β-Catenin Reporter Assay; type: cell-based, Mouse; details: Mus musculus, luciferase signal reduced to 50% of DMSO control
Method: (§1) Dual-Cell β-Catenin Reporter Assay
(§2) Mouse L cells transfected to constitutively produce biologically active murine Wnt-3a, referred to as L-Wnt cells, were purchased from the American Type Culture Collection, ATCC, Manassas, VA (ATCC). These cells were cultured in DMEM supplemented with 10% FCS (Gibco/Invitrogen, Carlsbad, CA), 1% geneticin and 1% sodium pyruvate (Sigma) at 37° C. with 5% CO2. The cells were seeded into 96 well plates and treated with serial dilutions of compound diluted to 0.1% DMSO concentration. After 24 hours, cell supernatants were transferred to a 96 well plate previously seeded with Leading Light® Wnt Reporter Cells, stably transfected with a luciferase gene under control of Wnt pathway response elements. After a further 24 hours, cells are treated with One-glo luciferase assay system (Promega, Madison, WI) and the luminescent signal read by envision. The IC50 of the compound is determined as the concentration that reduces the induced luciferase signal to 50% of the DMSO control.
(§3) The category “+” refers to compounds with an IC50 of >100 μM. The category “++” refers to compounds with an IC50 of 5 to 100 μM. The category “+++” refers to compounds with an IC50<5 μM.

[2] = system: L-Wnt cells (murine Wnt-3a) / Leading Light Wnt Reporter Cells (luciferase under control of Wnt pathway response elements); experiment: Dual-Cell β-Catenin Reporter Assay; type: cell-based, Mouse; details: category of IC50; luciferase signal reduced to 50% of DMSO control
Method: as §1, §2, §3

Row | IC50 ([1]; category of IC50) | IC50 [1] | IC50 [2] | Compound
1 | < 5 nM | 0.05 nM |  | Cc1c(-c2ccnc(C(F)(F)F)c2)ncn1CC(=O)Nc1ccc(-c2ccc(C#N)cc2)cn1 [compound 107]
2 | < 5 nM | 0.05 nM |  | Cc1c(-c2ccnc(C(F)(F)F)c2)ncn1CC(=O)Nc1ccc(-c2cnccn2)cn1 [compound 74]
3 | 5 to 100 nM | 12.2 nM |  | Cc1cc(-c2cnn(CC(=O)Nc3ccc(-c4cnccn4)cn3)c2)ccn1 [compound 3]
4 |  |  | < 5 nM | Cc1cn(CC(=O)Nc2ccc(-c3cnccn3)cn2)nc1-c1ccnc(C(F)(F)F)c1 [compound 67]
5 | < 5 nM | 0.61 nM |  | Cc1cc(-c2nn(CC(=O)Nc3ccc(-c4cnccn4)cn3)cc2C)ccn1 [compound 75]
6 |  |  | 5 to 100 nM | Cc1nn(CC(=O)Nc2ccc(-c3ncccn3)cn2)c(C)c1C1=CC(C)OC(C)C1 (stereo not drawn) [compound 85]
7 |  |  | 5 to 100 nM | Cc1nn(CC(=O)Nc2ccc(-c3cnccn3)cn2)c(C)c1-c1cc(Cl)ncn1 [compound 57]
8 |  |  | 5 to 100 nM | Cc1nn(CC(=O)Nc2ccc(C3CCOCC3)cn2)c(C)c1-c1ccnc(C(F)(F)F)c1 [compound 69]
9 | < 5 nM | 0.91 nM |  | CC(C)(C)OC(=O)N1CCN(c2ccc(NC(=O)Cn3cnc(-c4ccnc(C(F)(F)F)c4)c3)nc2)CC1 [compound 6]
10 |  |  | 5 to 100 nM | O=C(Cn1cc(-c2cc(C(F)(F)F)ncn2)cn1)Nc1ccc(-c2cnccn2)cn1 [compound 41]
11 |  |  | 5 to 100 nM | Cc1nn(CC(=O)Nc2ccc(-c3cnccn3)cn2)c(C)c1-c1ccnc(N(C)C)c1 [compound 100]
12 |  |  | 5 to 100 nM | Cc1nn(CC(=O)Nc2ccc(C3=CCOCC3)cn2)c(C)c1-c1ccnc(C(F)(F)F)c1 [compound 49]
13 |  |  | > 100 nM | Cc1cc(-c2cnccn2)cnc1NC(=O)Cn1nc(C)c(-c2ccnc(C(F)(F)F)c2)c1C [compound 76]
14 |  |  | 5 to 100 nM | Cn1nccc1-c1cnn(CC(=O)Nc2ccc(-c3cnccn3)cn2)c1 [compound 26]
15 |  |  | 5 to 100 nM | Cc1nn(CC(=O)Nc2ncc(-c3cnccn3)cc2C#N)c(C)c1-c1ccnc(C(F)(F)F)c1 [compound 80]
16 |  |  | 5 to 100 nM | O=C(Cn1cnc(-c2ccnc(C(F)(F)F)c2)c1)Nc1ccc(-c2cnccn2)nc1 [compound 13]
17 |  |  | 5 to 100 nM | Cc1nn(CC(=O)Nc2ccc(-c3cnccn3)cn2)c(C)c1-c1cnn(C(C)C)c1 [compound 62]
18 | < 5 nM | 0.14 nM |  | Cc1nn(CC(=O)Nc2ccc(-c3ccc(C#N)cc3)cn2)c(C)c1-c1ccnc(C(F)(F)F)c1 [compound 54]
19 |  |  | < 5 nM | O=C(Cn1cc(-c2ccnc(C(F)(F)F)c2)c(C(F)(F)F)n1)Nc1ccc(-c2cnccn2)cn1 [compound 95]
20 |  |  | < 5 nM | Cc1cc(-c2csc(CC(=O)Nc3ccc(-c4cnccn4)cn3)c2)ccn1 [compound 24]

Row | Compound | IC50 ([1]; category of IC50) | IC50 [1] | IC50 [2]
21 | Cc1nn(CC(=O)Nc2ccc(-c3cnccn3)cn2)c(C)c1C1=CCNCC1 [compound 53] |  |  | > 100 nM
